According to patent US20220324865A1 (Bayer Aktiengesellschaft, priority 2018, published 2022):
Counter-ions that a name gives are not always drawn.

Biological target: T1, human EP3 receptor (Homo sapiens, UniProt P43115)
T1 construct: expressed in transfected cells; host or cells: CHO K1 (Chinese Hamster Ovary), stably co-transfected with Galpha16 and mitochondrial clytin
T1 sequence (P43115 1-390): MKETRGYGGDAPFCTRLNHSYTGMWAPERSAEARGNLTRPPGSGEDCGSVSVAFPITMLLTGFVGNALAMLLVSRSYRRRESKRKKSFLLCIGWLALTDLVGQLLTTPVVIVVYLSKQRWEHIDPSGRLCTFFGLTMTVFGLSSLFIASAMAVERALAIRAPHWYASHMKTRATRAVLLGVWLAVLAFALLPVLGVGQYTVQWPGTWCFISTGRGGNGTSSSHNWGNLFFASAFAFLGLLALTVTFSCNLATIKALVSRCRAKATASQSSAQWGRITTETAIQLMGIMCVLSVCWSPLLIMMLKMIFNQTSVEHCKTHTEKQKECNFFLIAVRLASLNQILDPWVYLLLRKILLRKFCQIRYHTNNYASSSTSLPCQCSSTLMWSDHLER
Test: Cellular in vitro assay for determining EP3 receptor activity (human EP3 cell line, sulprostone-stimulated calcium luminescence)
Format: cell-based
Settings: CHO cells expressing human EP3 and mitochondrial Clytin; antagonist mode, sulprostone at EC50; read-out: EP3 CHO mtCLY ANTAG IC50
In short: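 Antagonist activity was measured as inhibition of the luminescent calcium signal elicited by EC50 sulprostone, following 10 min compound pretreatment. The cell line was recombinant CHO K1 co-expressing human EP3, Gα16 and the photoprotein Clytin, reconstituted with coelenterazine.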

| SMILES | IC50 [nM] |
| --- | --- |
| Cc1cc(-c2cn3nc(C(=O)NC4(c5ccccc5)CCOCC4)c(C4CC4)c3c(=O)[nH]2)ccc1Cl [6-342] | 1.07 |
| COc1ccc([C@@H](C)NC(=O)c2nn3cc(-c4ccc(Cl)c(F)c4)[nH]c(=O)c3c2C2CC2)cn1 [6-87] | 0.93 |
| CC(C)c1c(C(=O)N[C@H](C)C2CC2)nn2cc(-c3ccc(Cl)c(F)c3)[nH]c(=O)c12 [6-540] | 0.85 |
| CN1CC(NC(=O)c2nn3cc(-c4ccc5ccccc5c4)[nH]c(=O)c3c2C(F)(F)F)(c2ccc(F)cc2)C1 [Example 1-32, N-[3-(4-Fluorophenyl)-1-methylazetidin-3-yl]-6-(naphthalen-2-yl)-4-oxo-3-(trifluoromethyl)-4,5-dihydropyrazolo[1,5-a]pyrazine-2-carboxamide] | 1.6 |
| CCN1CCC(NC(=O)c2nn3cc(-c4ccc(C)c(F)c4)[nH]c(=O)c3c2C2CC2)(C(F)(F)F)C1 (single isomer, unassigned) [6-406] | 23.5 |
| Cc1ccc(-c2cn3nc(C(=O)N[C@@H](C)C4CC4)c(C4CC4)c3c(=O)[nH]2)cc1F [6-380] | 1.3 |
| Cc1ncc(-c2cn3nc(C(=O)N[C@@H](c4ccc(F)cc4)C(C)(C)O)c(C4CC4)c3c(=O)[nH]2)cc1Cl [6-579] | 0.86 |
| Cc1cc(-c2cn3nc(C(=O)NC(C)(C)C4CC4)c(C(F)(F)F)c3c(=O)[nH]2)ccc1Cl [6-220] | 1.18 |
| Cc1ccc(-c2cn3nc(C(=O)Nc4cccc(O)c4)c(C(F)(F)F)c3c(=O)[nH]2)cc1F [6-144] | 3.5 |
| CC(C)(O)[C@@H](NC(=O)c1nn2cc(-c3ccc4c(c3)OCCO4)[nH]c(=O)c2c1C1CC1)c1ccc(F)cc1 [6-466] | 5.4 |
| CC(C)(O)[C@@H](NC(=O)c1nn2cc(-c3ccc(Cl)c(F)c3)[nH]c(=O)c2c1C1CC1)c1ccc(F)cc1 [Example 1-167, 6-(4-Chloro-3-fluorophenyl)-3-cyclopropyl-N-[(15)-1-(4-fluorophenyl)-2-hydroxy-2-methylpropyl]-4-oxo-4,5-dihydropyrazolo[1,5-a]pyrazine-2-carboxamide] | 2.2 |
| CC(NC(=O)c1cc2c(=O)[nH]c(-c3ccc4ccccc4c3)cn2n1)c1ccc(O)cc1 (single isomer, unassigned) [6-542] | 10.5 |
| CC[C@@H](NC(=O)c1nn2c(C)c(-c3ccc4ccccc4c3)[nH]c(=O)c2c1C)c1ccccc1 [Example 3-33, 3,7-Dimethyl-6-(naphthalen-2-yl)-4-oxo-N-[(7R)-1-phenylpropyl]-4,5-dihydropyrazolo[1,5-a]pyrazine-2-carboxamide] | 2.2 |
| O=C(NC1CCCc2ccccc21)c1cc2c(=O)[nH]c(-c3ccc4ccccc4c3)cn2n1 (stereo not drawn) [Example 2-32, 6-(2-Naphthyl)-4-oxo-N-[1,2,3,4-tetrahydronaphthalin-1-yl]-4,5-dihydropyrazolo[1,5-a]pyrazine-2-carboxamide] | 2.8 |
| Cc1ccc(-c2cn3nc(C(=O)N[C@H](C)C4CC4)c(C4CC4)c3c(=O)[nH]2)cc1C [6-438] | 0.55 |
| CC(C)(O)[C@@H](NC(=O)c1nn2cc(-c3ccc(Cl)c(Cl)c3)[nH]c(=O)c2c1C1CC(F)(F)C1)c1ccc(F)cc1 [6-552] | 2.55 |
| Cc1[nH]c2ccc(CNC(=O)c3nn4cc(-c5cnc6cccc(C)c6c5)[nH]c(=O)c4c3C(C)C)cc2c1C [Example 4-10, N-[(2,3-Dimethyl-1H-indol-5-yl)methyl]-6-(5-methylquinolin-3-yl)-4-oxo-3-(propan-2-yl)-4,5-dihydropyrazolo[1,5-a]pyrazine-2-carboxamide] | 2 |
| CN1CC(NC(=O)c2cc3c(=O)[nH]c(-c4ccc5c(c4)CCCC5)cn3n2)(c2ccc(F)cc2)C1 [Example 1-99, N-[3-(4-Fluorophenyl)-1-methylazetidin-3-yl]-4-oxo-6-(5,6,7,8-tetrahydronaphthalen-2-yl)-4,5-dihydropyrazolo[1,5-a]pyrazine-2-carboxamide] | 4 |
| Cc1cc(-c2cn3nc(C(=O)N[C@H]4CCN(C5CC5)C4)c(C4CC4)c3c(=O)[nH]2)ccc1Cl (single isomer, unassigned) [6-324] | 0.97 |
| Cc1cc(-c2cn3nc(C(=O)N[C@H](CN4CCC(F)(F)C4)c4ccc(F)cc4)c(C4CC4)c3c(=O)[nH]2)ccc1Cl [6-339] | 7.15 |
| O=C(NC(c1ccc(F)cc1)C1(O)CC1)c1nn2cc(-c3ccc(Cl)c(Cl)c3)[nH]c(=O)c2c1C1CC1 (single isomer, unassigned) [6-423] | 0.62 |
| Cc1ccc(-c2cn3nc(C(=O)NC4CC4C(C)C)c(C(F)(F)F)c3c(=O)[nH]2)cc1F (single isomer, unassigned) [6-145] | 6.25 |
| COC[C@@H](NC(=O)c1nn2cc(-c3cnc4cccc(C)c4c3)[nH]c(=O)c2c1C(C)C)c1ccccc1 [Example 1-87, N-[(1S)-2-Methoxy-1-phenylethyl]-6-(5-methylquinolin-3-yl)-4-oxo-3-(propan-2-yl)-4,5-dihydropyrazolo[1,5-a]pyrazine-2-carboxamide] | 2.85 |
| Cc1ccc(-c2cn3nc(C(=O)N[C@@]4(C)CCS(=O)(=O)C4)c(C4CC4)c3c(=O)[nH]2)cc1F (racemic) [6-376] | 5.07 |
| CC(C)(O)[C@@H](NC(=O)c1nn2cc(-c3ccc(Cl)c(F)c3)[nH]c(=O)c2c1C1CC1(F)F)c1ccc(F)cc1 (stereo partly drawn) [6-564] | 4.05 |
| Cc1cccc2ncc(-c3cn4nc(C(=O)N[C@H](CCO)c5ccccc5)c(C(C)C)c4c(=O)[nH]3)cc12 [Example 1-88, N-[(1R)-3-Hydroxy-1-phenylpropyl]-6-(5-methylquinolin-3-yl)-4-oxo-3-(propan-2-yl)-4,5-dihydropyrazolo[1,5-a]pyrazine-2-carboxamide] | 1.35 |

The next lines start with the values.

| IC50 [nM] | SMILES |
| --- | --- |
| 1.7 | O=C(NCC1CCCCC1)c1cc2c(=O)[nH]c(-c3ccc4c(c3)OCCO4)cn2n1 [Example 1-43, N-(Cyclohexylmethyl)-6-(2,3-dihydro-1,4-benzodioxin-6-yl)-4-oxo-4,5-dihydropyrazolo[1,5-a]-pyrazine-2-carboxamide] |
| 2.9 | COC[C@H](Cc1ccccc1)NC(=O)c1cc2c(=O)[nH]c(-c3ccc4ccccc4c3)cn2n1 [Example 2-25, N-[(2S)-1-Methoxy-3-phenylpropan-2-yl]-6-(2-naphthyl)-4-oxo-4,5-dihydropyrazolo[1,5-a]pyrazine-2-carboxamide] |
| 0.73 | Cc1cc(-c2cn3nc(C(=O)N[C@@H](c4ccc(F)cc4)C(C)(C)O)c(C4CC4)c3c(=O)[nH]2)ccc1Cl [Example 1-173, 6-(4-Chloro-3-methylphenyl)-3-cyclopropyl-N-[(1S)-1-(4-fluorophenyl)-2-hydroxy-2-methylpropyl]-4-oxo-4,5-dihydropyrazolo[1,5-a]pyrazine-2-carboxamide] |
| 1.06 | O=C(N[C@H]1c2ccccc2C[C@@H]1O)c1nn2cc(-c3ccc4ccccc4c3)[nH]c(=O)c2c1C(F)(F)F [Example 1-78, N-[(1S,2S)-2-Hydroxy-2,3-dihydro-1H-inden-1-yl]-6-(naphthalen-2-yl)-4-oxo-3-(trifluoromethyl)-4,5-dihydropyrazolo[1,5-a]pyrazine-2-carboxamide] |
| 3.85 | Cc1ccc(-c2cn3nc(C(=O)NCC(O)C(F)(F)F)c(C(F)(F)F)c3c(=O)[nH]2)cc1C (single isomer, unassigned) [6-117] |
| 4.09 | CN(C)C[C@@H](NC(=O)c1cc2c(=O)[nH]c(-c3ccc4ccccc4c3)cn2n1)c1ccccc1 [Example 1-38, N-[(1S)-2-(Dimethylamino)-1-phenylethyl]-6-(naphthalen-2-yl)-4-oxo-4,5-dihydropyrazolo[1,5-a]-pyrazine-2-carboxamide formic acid salt] |
| 2.9 | CCn1cnnc1CNC(=O)c1nn2cc(-c3cnc4cccc(C)c4c3)[nH]c(=O)c2c1C(C)C [Example 4-20, N-[(4-Ethyl-4H-1,2,4-triazol-3-yl)methyl]-6-(5-methylquinolin-3-yl)-4-oxo-3-(propan-2-yl)-4,5-dihydropyrazolo[1,5-a]pyrazine-2-carboxamide] |
| 7.5 | CCCNC(=O)c1cc2c(=O)[nH]c(-c3ccc4cccc(F)c4c3)cn2n1 [6-40] |
| 2.9 | Cc1ccc(-c2cn3nc(C(=O)NC(C)c4ccc(O)cc4)cc3c(=O)[nH]2)cc1C (stereo not drawn) [Example 1-137, 6-(3,4-Dimethylphenyl)-N-[1-(4-hydroxphenyl)ethyl]-4-oxo-5H-pyrazolo[1,5-a]pyrazine-2-carboxamide] |
| 1.03 | Cc1cc(-c2cn3nc(C(=O)N[C@@H](c4ccc(F)cc4)C(F)(F)CO)c(C(F)(F)F)c3c(=O)[nH]2)ccc1Cl [Example 1-171, 6-(4-Chloro-3-methylphenyl)-N-[(1S)-2,2-difluoro-1-(4-fluorophenyl)-3-hydroxpropyl]-4-oxo-3-(trifluoromethyl)-4,5-dihydropyrazolo[1,5-a]pyrazine-2-carboxamide] |
| 0.83 | COc1ccc(-c2cn3nc(C(=O)N[C@@H](c4ccc(F)cc4)C(C)(C)O)c(C4CC4)c3c(=O)[nH]2)cc1F [6-587] |
| 4.6 | CN1CC(NC(=O)c2nn3cc(-c4ccc5ccccc5c4)[nH]c(=O)c3c2C2CC2)(c2ccc(F)cc2)C1 [Example 1-82, 3-Cyclopropyl-N-[3-(4-fluorophenyl)-1-methylazetidin-3-yl]-6-(naphthalen-2-yl)-4-oxo-4,5-dihydropyrazolo[1,5-a]pyrazine-2-carboxamide] |
| 3.13 | Cc1cccc2ncc(-c3cn4nc(C(=O)N[C@@H](c5ccc(F)cc5)C(C)(C)O)c(C(F)(F)F)c4c(=O)[nH]3)cc12 [6-546] |
